Reference: BigSolDB 2.1

CN1CCN(C2=Nc3cc(Cl)ccc3Nc3ccccc32)CC1
solubility (mole fraction)
Conditions	278.15 K	283.15 K	288.15 K	293.15 K	298.15 K	303.15 K	308.15 K	313.15 K	318.15 K	323.15 K
in 2-ethoxyethanol	0.0358	0.0391	0.0415	0.0442	0.0476	0.0499	0.053	0.0566	0.0612	0.0666
in 2-methoxyethanol	0.0326	0.0349	0.0366	0.0393	0.0422	0.0451	0.048	0.0508	0.0546	0.0596
in 2-propoxyethanol	0.042	0.0443	0.0463	0.0499	0.0521	0.0548	0.0581	0.0612	0.0637	0.0679
in ethanol	0.00466	0.00535	0.00581	0.0064	0.0072	0.0081	0.00917	0.0105	0.012	0.0134
in ethyl acetate	0.00895	0.01	0.0114	0.0128	0.0146	0.016	0.0181	0.0203	0.0233	0.0265
in methyl acetate	0.00616	0.00707	0.00797	0.0094	0.0108	0.0124	0.0142	0.0164	0.0188	0.022
in n-butanol	0.00644	0.00761	0.00853	0.00972	0.0112	0.0129	0.0145	0.0164	0.0192	0.0217
in n-butyl acetate	0.0121	0.0136	0.0147	0.0164	0.0182	0.02	0.0228	0.0255	0.0276	0.0314
in n-pentanol	0.00737	0.00904	0.0107	0.0121	0.0135	0.0152	0.0177	0.0203	0.0234	0.0264
in n-pentyl acetate	0.0131	0.0143	0.0162	0.0176	0.0198	0.0221	0.024	0.0269	0.0298	0.0334
in n-propanol	0.00577	0.00645	0.00734	0.0083	0.00928	0.0109	0.0123	0.0148	0.0168	0.019
in n-propyl acetate	0.0114	0.0128	0.014	0.0157	0.0174	0.0194	0.0219	0.0246	0.027	0.0305
